Data as given in patent US10040759B2, “Substituted azetidinyl compounds as GlyT1 inhibitors” (DART NEUROSCIENCE (CAYMAN) LTD., priority 2014, dated 2018).

The molecules below were run against T1, GlyT1 (Homo sapiens, UniProt P48067) (assay: Glycine Transporter 1 (GlyT1) uptake assay, scintillation proximity assay of [14C]-glycine uptake). Details: [14C]-glycine uptake; read-out: GlyT1 (pIC50) (converted).
T1 construct: expressed in transfected cells
T1 sequence (P48067 1-706): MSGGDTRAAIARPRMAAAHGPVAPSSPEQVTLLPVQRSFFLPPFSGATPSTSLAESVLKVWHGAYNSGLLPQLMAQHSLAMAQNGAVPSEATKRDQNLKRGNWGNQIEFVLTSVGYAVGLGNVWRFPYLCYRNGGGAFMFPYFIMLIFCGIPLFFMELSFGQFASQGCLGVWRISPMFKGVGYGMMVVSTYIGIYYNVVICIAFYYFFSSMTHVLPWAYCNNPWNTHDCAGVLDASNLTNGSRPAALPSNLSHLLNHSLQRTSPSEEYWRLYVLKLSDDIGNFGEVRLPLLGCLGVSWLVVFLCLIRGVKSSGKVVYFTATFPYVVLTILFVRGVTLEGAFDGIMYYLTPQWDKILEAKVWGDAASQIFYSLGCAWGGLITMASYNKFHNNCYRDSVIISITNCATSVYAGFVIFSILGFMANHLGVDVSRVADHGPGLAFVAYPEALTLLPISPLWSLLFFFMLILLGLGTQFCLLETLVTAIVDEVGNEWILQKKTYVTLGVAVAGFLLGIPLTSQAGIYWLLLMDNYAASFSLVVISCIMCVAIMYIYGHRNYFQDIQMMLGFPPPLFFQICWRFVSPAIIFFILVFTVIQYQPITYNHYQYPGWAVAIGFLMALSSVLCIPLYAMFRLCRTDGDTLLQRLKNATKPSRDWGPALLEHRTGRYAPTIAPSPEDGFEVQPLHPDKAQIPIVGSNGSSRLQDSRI
Format: cell-based
Procedure, shortened: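 IC50 values were derived by four-parameter logistic fitting of counts. The 2× compound solutions were made by 1:100 dilution into HBSS of DMSO serial dilutions.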

| SMILES | IC50 |
| --- | --- |
| COc1c(C#N)ccc(OC(C)C(F)(F)F)c1C(=O)N1CC(Oc2cccnc2)C1 (centres unmarked) [Example 102, 2-Methoxy-3-{[3-(pyridin-3-yloxy)azetidin-1-yl]carbonyl}-4-[(1,1,1-trifluoropropan-2-yl)oxy]benzonitrile] | 0.1 to 1 µM |
| COc1c(S(C)(=O)=O)ccc(OC(C)C)c1C(=O)N1CC(c2ccc(F)c(F)c2)C1 [Example 216, 3-(3,4-Difluorophenyl)-1-[3-methanesulfonyl-2-methoxy-6-(propan-2-yloxy)benzoyl]azetidine] | 0.1 to 1 µM |
| COc1c(S(C)(=O)=O)ccc(O[C@@H](C)C(F)(F)F)c1C(=O)N1CC(c2ccccc2C(F)(F)F)C1 [Example 199, 1-(3-Methanesulfonyl-2-methoxy-6-{[(2S)-1,1,1-trifluoropropan-2-yl]oxy}benzoyl)-3-[2-(trifluoromethyl)phenyl]azetidine] | < 0.1 µM |
| COc1cc(C2CN(C(=O)c3c(O[C@@H](C)C(F)(F)F)ccc(S(C)(=O)=O)c3OC)C2)ccc1C(F)(F)F [Example 144, 1-(3-Methanesulfonyl-2-methoxy-6-{[(2S)-1,1,1-trifluoropropan-2-yl]oxy}benzoyl)-3-[3-methoxy-4-(trifluoromethyl)phenyl]azetidine] | 1 to 10 µM |
| COc1c(C#N)ccc(O[C@@H](C)C(F)(F)F)c1C(=O)N1CC(Oc2ccncc2)C1 [Example 35, 2-Methoxy-3-{[3-(pyridin-4-yloxy)azetidin-1-yl]carbonyl}-4-{[(2S)-1,1,1-trifluoropropan-2-yl]oxy}benzonitrile] | < 0.1 µM |
| COc1c(S(C)(=O)=O)ccc(O[C@@H](C)C(F)(F)F)c1C(=O)N1CC(Oc2c(F)cccc2F)C1 [Example 203, 3-(2,6-Difluorophenoxy)-1-(3-methanesulfonyl-2-methoxy-6-{[(2S)-1,1,1-trifluoropropan-2-yl]oxy}benzoyl)azetidine] | 0.1 to 1 µM |
| CC(Oc1ccc(C#N)c(Cl)c1C(=O)N1CC(c2ccc(C(F)(F)F)nc2)C1)C(F)(F)F (centres unmarked) [Example 112, 2-Chloro-3-({3-[6-(trifluoromethyl)pyridin-3-yl]azetidin-1-yl}carbonyl)-4-[(1,1,1-trifluoropropan-2-yl)oxy]benzonitrile] | < 0.1 µM |
| COc1ccc(OC2CN(C(=O)c3c(OC(C)C(F)(F)F)ccc(C#N)c3Cl)C2)cc1 (centres unmarked) [Example 89, 2-Chloro-3-{[3-(4-methoxyphenoxy)azetidin-1-yl]carbonyl}-4-[(1,1,1-trifluoropropan-2-yl)oxy]benzonitrile] | < 0.1 µM |
| COc1c(S(C)(=O)=O)ccc(OC(C)C(F)(F)F)c1C(=O)N1CC(c2cc(F)cc(F)c2)C1 (centres unmarked) [Example 182, 3-(3,5-Difluorophenyl)-1-({3-methanesulfonyl-2-methoxy-6-[(1,1,1-trifluoropropan-2-yl)oxy]phenyl}carbonyl)azetidine] | 0.1 to 1 µM |
| CCOc1c(C#N)ccc(C2CN(C(=O)c3c(O[C@@H](C)C(F)(F)F)ccc(C#N)c3OC)C2)c1Cl [Example 176, 3-Chloro-4-[1-(3-cyano-2-methoxy-6-{[(2S)-1,1,1-trifluoropropan-2-yl]oxy}benzoyl)azetidin-3-yl]-2-ethoxybenzonitrile] | < 0.1 µM |
| COc1c(S(C)(=O)=O)ccc(OC(C)C)c1C(=O)N1CC(c2ccc(C(F)(F)F)cn2)C1 [Example 213, 2-{1-[3-Methanesulfonyl-2-methoxy-6-(propan-2-yloxy)benzoyl]azetidin-3-yl}-5-(trifluoromethyl)pyridine] | 0.1 to 1 µM |
